We go through ten molecules from patent US7598417B2, “Substituted fluoroethyl ureas as alpha 2 adrenergic agents” (Allergan, Inc., priority 2007, dated 2009).

Each structure is given as a SMILES string.

One may read the EC50 as the concentration giving half of the maximal effect.

The target in one assay is T1, alpha2A receptor (Homo sapiens, UniProt P08913).
T1 construct: expressed in transfected cells; host or cells: NIH-3T3
T1 sequence (P08913 1-465): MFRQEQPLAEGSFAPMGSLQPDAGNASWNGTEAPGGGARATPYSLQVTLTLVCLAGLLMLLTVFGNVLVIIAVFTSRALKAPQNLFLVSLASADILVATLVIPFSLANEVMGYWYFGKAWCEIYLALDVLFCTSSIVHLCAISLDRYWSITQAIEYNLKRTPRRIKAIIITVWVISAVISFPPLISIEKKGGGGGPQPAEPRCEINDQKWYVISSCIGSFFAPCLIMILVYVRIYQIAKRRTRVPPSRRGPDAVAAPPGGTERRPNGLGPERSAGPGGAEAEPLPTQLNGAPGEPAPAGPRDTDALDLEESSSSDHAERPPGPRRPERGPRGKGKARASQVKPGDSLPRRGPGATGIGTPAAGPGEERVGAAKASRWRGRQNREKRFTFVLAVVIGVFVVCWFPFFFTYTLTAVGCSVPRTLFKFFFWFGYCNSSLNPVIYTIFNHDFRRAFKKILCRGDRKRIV
The assay is described as follows: Receptor Selection and Amplification Technology (RSAT) assay, alpha2A. The assay is classed as cell-based. To be noted: RSAT, NIH-3T3 cells cotransfected with receptor and Gq/i5; not active = not active at concentrations less than 10 micromolar. How it is done:
(§1) Receptor Selection and Amplification Technology (RSAT) Assay
(§2) The RSAT assay measures a receptor-mediated loss of contact inhibition that results in selective proliferation of receptor-containing cells in a mixed population of confluent cells. The increase in cell number is assessed with an appropriate transfected marker gene such as β-galactosidase, the activity of which can be easily measured in a 96-well format. Receptors that activate the G protein, Gq, elicit this response. Alpha2 receptors, which normally couple to Gi, activate the RSAT response when coexpressed with a hybrid Gq protein that has a Gi receptor recognition domain, called Gq/i5.
(§3) NIH-3T3 cells are plated at a density of 2×10^6 cells in 15 cm dishes and maintained in Dulbecco's modified Eagle's medium supplemented with 10% calf serum. One day later, cells are cotransfected by calcium phosphate precipitation with mammalian expression plasmids encoding p-SV-β-galactosidase (5-10 μg), receptor (1-2 μg) and G protein (1-2 μg). 40 μg salmon sperm DNA may also be included in the transfection mixture. Fresh media is added on the following day and 1-2 days later, cells are harvested and frozen in 50 assay aliquots. Cells are thawed and 100 μl added to 100 μl aliquots of various concentrations of drugs in triplicate in 96-well dishes. Incubations continue 72-96 hr at 37° C. After washing with phosphate-buffered saline, β-galactosidase enzyme activity is determined by adding 200 μl of the chromogenic substrate (consisting of 3.5 mM o-nitrophenyl-β-D-galactopyranoside and 0.5% nonidet P-40 in phosphate buffered saline), incubating overnight at 30° C. and measuring optical density at 420 nm. The absorbance is a measure of enzyme activity, which depends on cell number and reflects a receptor-mediated cell proliferation. The efficacy or intrinsic activity is calculated as a ratio of the maximal effect of the drug to the maximal effect of a standard full agonist for each receptor subtype. Brimonidine, also called UK14304, the chemical structure of which is shown below, is used as the standard agonist for the alpha2A, alpha2B and alpha2C receptors. The EC50 is the concentration at which the drug effect is half of its maximal effect.
(§4) EC50 values are nanomolar. NA stands for “not active” at concentrations less than 10 micromolar. IA stands for “intrinsic activity.”
As for `CC1CC(NC(=O)NCCF)c2ccccc21` (stereo not shown), the “Alpha 2A EC50” value is on record as “not active”.

With `O=C(NCCF)NC1Cc2ccc(F)cc2C1` (stereo not shown), the “Alpha 2A EC50” value is reported as “not active”.

Consider `O=C(NCCF)NC1Cc2cccc(Cl)c2C1` (stereo not shown), for which the “Alpha 2A EC50” value was “not active”.

With `O=C(NCCF)NC1CCc2ccc(Cl)c(Cl)c21` (stereo not shown), the “Alpha 2A EC50” value is reported as “not active”.

In the case of `Cc1ccc2c(c1C)C(NC(=O)NCCF)CC2` (stereo not shown), the “Alpha 2A EC50” value is recorded as “not active”.

The same assay, now with this note: RSAT, NIH-3T3 cells cotransfected with receptor and Gq/i5; not active = not active at concentrations less than 10 micromolar; read-out: Alpha 2A EC50.
On to `Cc1cccc2c1CCC2NC(=O)NCCF` (stereo not shown), for which the half-maximal effective concentration (EC50) was 0.12 µM.

Take `CCC[C@@H]1CCCC[C@H]1NC(=O)NCCF`: the concentration giving a half-maximal response (EC50) came to 1.47 µM.

Regarding `COc1cccc2c1CCCC2NC(=O)NCCF` (stereo not shown), the concentration giving a half-maximal response (EC50) was 2.35 µM.

Take `CC1CCC(NC(=O)NCCF)c2ccccc21` (stereo not shown): the EC50 came out at 0.331 µM.

Turning to `O=C(NCCF)NC1CCCCc2ccc(F)cc21` (stereo not shown), the 50% effective concentration (EC50) is over 2 µM.

Staying with this assay, now noted: ratio of maximal effect of the drug to maximal effect of standard full agonist brimonidine (UK14304).
Turning to `Cc1cccc2c1CCC2NC(=O)NCCF` (stereo not shown), the “Alpha 2A IA (intrinsic activity)” value is recorded as 0.59.

Regarding `CCC[C@@H]1CCCC[C@H]1NC(=O)NCCF`, the “Alpha 2A IA (intrinsic activity)” value is given as 0.4.

Consider `COc1cccc2c1CCCC2NC(=O)NCCF` (stereo not shown), for which the “Alpha 2A IA (intrinsic activity)” value was found to be 0.37.

Regarding `CC1CCC(NC(=O)NCCF)c2ccccc21` (stereo not shown), the “Alpha 2A IA (intrinsic activity)” value came to 0.34.

Consider `O=C(NCCF)NC1CCCCc2ccc(F)cc21` (stereo not shown), for which the “Alpha 2A IA (intrinsic activity)” value was 0.31.

The next assay addresses T2, alpha2B receptor (Homo sapiens, UniProt P18089).
T2 construct: expressed in transfected cells; host or cells: NIH-3T3
T2 sequence (P18089 1-450): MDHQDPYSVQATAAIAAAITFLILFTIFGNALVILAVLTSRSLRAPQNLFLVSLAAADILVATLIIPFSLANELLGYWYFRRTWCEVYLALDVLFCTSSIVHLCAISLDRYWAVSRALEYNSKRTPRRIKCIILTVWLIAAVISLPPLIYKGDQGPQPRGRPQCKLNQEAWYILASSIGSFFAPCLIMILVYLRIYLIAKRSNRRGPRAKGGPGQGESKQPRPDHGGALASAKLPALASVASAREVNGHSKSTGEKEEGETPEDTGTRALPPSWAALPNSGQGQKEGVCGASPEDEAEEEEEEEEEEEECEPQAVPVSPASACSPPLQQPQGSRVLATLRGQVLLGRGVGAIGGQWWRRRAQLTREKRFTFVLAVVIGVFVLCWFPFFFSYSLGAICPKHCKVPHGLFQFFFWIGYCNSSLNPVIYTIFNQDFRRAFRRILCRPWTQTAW
The assay is described as follows: Receptor Selection and Amplification Technology (RSAT) assay, alpha2B. The settings on record: RSAT, NIH-3T3 cells cotransfected with receptor and Gq/i5; not active = not active at concentrations less than 10 micromolar; read-out: Alpha 2B EC50. The assay is classed as cell-based. How it is done:
as §1, §2, §3
The results of the RSAT assay with several exemplary compounds of the invention are disclosed in Table 1 above together with the chemical formulas of these exemplary compounds. EC50 values are nanomolar. NA stands for “not active” at concentrations less than 10 micromolar. IA stands for “intrinsic activity.”
In the case of `CC1CC(NC(=O)NCCF)c2ccccc21` (stereo not shown), the EC50 turned out to be 0.0109 µM.

On to `Cc1cccc2c1CCC2NC(=O)NCCF` (stereo not shown), for which the EC50 amounted to 0.0012 µM.

In the case of `CCC[C@@H]1CCCC[C@H]1NC(=O)NCCF`, the EC50 stood at 1.74 µM.

As for `COc1cccc2c1CCCC2NC(=O)NCCF` (stereo not shown), the concentration giving a half-maximal response (EC50) was 0.291 µM.

As to `CC1CCC(NC(=O)NCCF)c2ccccc21` (stereo not shown), the EC50 stood at 0.021 µM.

Take `O=C(NCCF)NC1CCCCc2ccc(F)cc21` (stereo not shown): the concentration for a half-maximal effect (EC50) stood at 0.913 µM.

With `O=C(NCCF)NC1Cc2ccc(F)cc2C1` (stereo not shown), the EC50 was 2.2 µM.

Consider `O=C(NCCF)NC1Cc2cccc(Cl)c2C1` (stereo not shown), for which the EC50 worked out at 0.0154 µM.

In the case of `O=C(NCCF)NC1CCc2ccc(Cl)c(Cl)c21` (stereo not shown), the concentration for a half-maximal effect (EC50) is 0.0724 µM.

For the molecule `Cc1ccc2c(c1C)C(NC(=O)NCCF)CC2` (stereo not shown), the EC50 is 0.649 µM.

The assay is the same for the next values; noted with them: ratio of maximal effect of the drug to maximal effect of standard full agonist brimonidine (UK14304).
Turning to `CC1CC(NC(=O)NCCF)c2ccccc21` (stereo not shown), the “Alpha 2B IA (intrinsic activity)” value is listed as 0.96.

For the molecule `Cc1cccc2c1CCC2NC(=O)NCCF` (stereo not shown), the “Alpha 2B IA (intrinsic activity)” value is given as 1.1.

In the case of `CCC[C@@H]1CCCC[C@H]1NC(=O)NCCF`, the “Alpha 2B IA (intrinsic activity)” value came to 0.84.

Consider `COc1cccc2c1CCCC2NC(=O)NCCF` (stereo not shown), for which the “Alpha 2B IA (intrinsic activity)” value worked out at 0.84.

In the case of `CC1CCC(NC(=O)NCCF)c2ccccc21` (stereo not shown), the “Alpha 2B IA (intrinsic activity)” value stood at 0.89.

In the case of `O=C(NCCF)NC1CCCCc2ccc(F)cc21` (stereo not shown), the “Alpha 2B IA (intrinsic activity)” value is on record as 0.54.

As for `O=C(NCCF)NC1Cc2ccc(F)cc2C1` (stereo not shown), the “Alpha 2B IA (intrinsic activity)” value stood at 0.93.

In the case of `O=C(NCCF)NC1Cc2cccc(Cl)c2C1` (stereo not shown), the “Alpha 2B IA (intrinsic activity)” value is given as 0.67.

Turning to `O=C(NCCF)NC1CCc2ccc(Cl)c(Cl)c21` (stereo not shown), the “Alpha 2B IA (intrinsic activity)” value turned out to be 1.0.

Take `Cc1ccc2c(c1C)C(NC(=O)NCCF)CC2` (stereo not shown): the “Alpha 2B IA (intrinsic activity)” value is on record as 0.64.

In another assay the target is T3, alpha2C receptor (Homo sapiens, UniProt P18825).
T3 construct: expressed in transfected cells; host or cells: NIH-3T3
T3 sequence (P18825 1-462): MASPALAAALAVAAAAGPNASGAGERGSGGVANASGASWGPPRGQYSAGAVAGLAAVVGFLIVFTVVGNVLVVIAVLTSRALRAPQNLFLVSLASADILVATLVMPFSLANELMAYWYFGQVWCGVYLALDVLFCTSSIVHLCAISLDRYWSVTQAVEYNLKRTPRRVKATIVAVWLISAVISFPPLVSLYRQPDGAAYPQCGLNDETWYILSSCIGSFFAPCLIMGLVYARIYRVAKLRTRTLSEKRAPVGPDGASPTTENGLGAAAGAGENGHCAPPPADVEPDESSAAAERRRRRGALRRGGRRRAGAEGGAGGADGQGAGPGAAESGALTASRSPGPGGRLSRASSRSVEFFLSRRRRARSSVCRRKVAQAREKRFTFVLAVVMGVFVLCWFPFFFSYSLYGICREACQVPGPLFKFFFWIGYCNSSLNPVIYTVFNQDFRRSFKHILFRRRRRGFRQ
The assay is described as follows: Receptor Selection and Amplification Technology (RSAT) assay, alpha2C. The assay is classed as cell-based. To be noted: RSAT, NIH-3T3 cells cotransfected with receptor and Gq/i5; not active = not active at concentrations less than 10 micromolar. As for the experimental part: as §1, §2, §3, §4
Turning to `CCC[C@@H]1CCCC[C@H]1NC(=O)NCCF`, the “Alpha 2C EC50” value is “not active”.

For the molecule `O=C(NCCF)NC1Cc2ccc(F)cc2C1` (stereo not shown), the “Alpha 2C EC50” value is listed as “not active”.

As to `Cc1ccc2c(c1C)C(NC(=O)NCCF)CC2` (stereo not shown), the “Alpha 2C EC50” value is on record as “not active”.

The assay is the same for the next values; noted with them: RSAT, NIH-3T3 cells cotransfected with receptor and Gq/i5; not active = not active at concentrations less than 10 micromolar; read-out: Alpha 2C EC50.
Turning to `CC1CC(NC(=O)NCCF)c2ccccc21` (stereo not shown), the 50% effective concentration (EC50) came to 0.168 µM.

Regarding `Cc1cccc2c1CCC2NC(=O)NCCF` (stereo not shown), the EC50 is 0.0672 µM.

On to `COc1cccc2c1CCCC2NC(=O)NCCF` (stereo not shown), for which the EC50 was found to be 0.872 µM.

Take `CC1CCC(NC(=O)NCCF)c2ccccc21` (stereo not shown): the EC50 came to 0.282 µM.

On to `O=C(NCCF)NC1CCCCc2ccc(F)cc21` (stereo not shown), for which the EC50 was determined as 0.341 µM.

For `O=C(NCCF)NC1Cc2cccc(Cl)c2C1` (stereo not shown), the EC50 worked out at 0.0125 µM.

`O=C(NCCF)NC1CCc2ccc(Cl)c(Cl)c21` (stereo not shown): the EC50 turned out to be 0.0295 µM.

The assay is the same for the next values; noted with them: ratio of maximal effect of the drug to maximal effect of standard full agonist brimonidine (UK14304).
For `CC1CC(NC(=O)NCCF)c2ccccc21` (stereo not shown), the “Alpha 2C IA (intrinsic activity)” value is 0.43.

`Cc1cccc2c1CCC2NC(=O)NCCF` (stereo not shown): the “Alpha 2C IA (intrinsic activity)” value turned out to be 0.79.

As for `COc1cccc2c1CCCC2NC(=O)NCCF` (stereo not shown), the “Alpha 2C IA (intrinsic activity)” value came out at 0.51.

Turning to `CC1CCC(NC(=O)NCCF)c2ccccc21` (stereo not shown), the “Alpha 2C IA (intrinsic activity)” value is 0.45.

In the case of `O=C(NCCF)NC1CCCCc2ccc(F)cc21` (stereo not shown), the “Alpha 2C IA (intrinsic activity)” value came to 0.3.

On to `O=C(NCCF)NC1Cc2cccc(Cl)c2C1` (stereo not shown), for which the “Alpha 2C IA (intrinsic activity)” value is listed as 0.44.

With `O=C(NCCF)NC1CCc2ccc(Cl)c(Cl)c21` (stereo not shown), the “Alpha 2C IA (intrinsic activity)” value was 0.43.
